The values that follow come from patent publication US11234979B2, “Heteroaryl compounds as muscarinic M1 receptor positive allosteric modulators” (SUVEN LIFE SCIENCES LIMITED, priority 2017, dated 2022).

A short description of series [1]: Rodent pharmacokinetic study. Format: in vivo, Male Wistar rats. Conditions: male, Wistar, rat, plasma; for bioavailability: oral 3 mg/kg vs i.v. 1 mg/kg. The procedure:
Rodent Pharmacokinetic Study
Male Wistar rats (260±50 grams) were used as experimental animals. Animals were housed individually in polypropylene cage. Two days prior to study, male Wistar rats were anesthetized with isoflurane for surgical placement of jugular vein catheter. Rats were randomly divided for oral (3 mg/kg) and intravenous (i.v) (1 mg/kg) dosing (n=3/group) and fasted overnight before oral dosing (p.o.). However, rats allocated to intravenous (i.v.) dosing food and water was provided ad libitum.
At pre-determined point, blood was collected through jugular vein and replenished with an equivalent volume of normal saline. Collected blood was transferred into a labeled eppendorf tube containing 10 μL of heparin as an anticoagulant. Typically blood samples were collected at following time points: 0.08, 0.25, 0.5, 1, 2, 4, 6, 8, and 24 hours post dose. Blood was centrifuged at 4000 rpm for 10 minutes. Plasma was separated and stored frozen at −80° C. until analysis. The concentrations of the test compounds were quantified in plasma by qualified LC-MS/MS method using suitable extraction technique. The test compounds were quantified in the calibration range around 1-1000 ng/mL in plasma. Study samples were analyzed using calibration samples in the batch and quality control samples spread across the batch.
Pharmacokinetic parameters Cmax, AUCt, T1/2, clearance and bioavailability (F) were calculated by non-compartmental model using standard non-compartmental model by using Phoenix WinNonlin 6.0.2 or 6.0.3 version Software package.

In series [2] the target is T1, recombinant human Muscarinic M1 receptor (Homo sapiens, UniProt P11229).
T1 construct: expressed in transfected cells
T1 sequence (P11229 1-460): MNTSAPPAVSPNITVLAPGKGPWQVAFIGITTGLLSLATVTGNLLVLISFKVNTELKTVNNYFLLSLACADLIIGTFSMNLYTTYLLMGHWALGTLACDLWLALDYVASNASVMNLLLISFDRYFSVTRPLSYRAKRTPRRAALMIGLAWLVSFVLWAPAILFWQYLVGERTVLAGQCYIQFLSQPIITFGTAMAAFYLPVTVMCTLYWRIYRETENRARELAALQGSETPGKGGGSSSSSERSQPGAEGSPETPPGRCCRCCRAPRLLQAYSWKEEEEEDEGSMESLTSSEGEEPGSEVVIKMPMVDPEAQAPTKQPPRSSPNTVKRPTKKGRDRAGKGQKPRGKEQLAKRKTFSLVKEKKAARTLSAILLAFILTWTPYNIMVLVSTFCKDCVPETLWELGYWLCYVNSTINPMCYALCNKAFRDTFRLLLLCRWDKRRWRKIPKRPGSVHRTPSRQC
Put plainly: Allosteric potency EC50 for Muscarinic M1 receptor, CHO pCRE-Luc reporter assay with EC20 of acetylcholine. Format: cell-based. As to conditions: CHO cells, in presence of EC20 of acetylcholine, 4 hours. Here is the method: Determination of Allosteric Potency EC50 Values for Muscarinic M1 Receptor:
A stable CHO cell line expressing recombinant human Muscarinic M1 receptor and pCRE-Luc reporter system was used for cell-based assay. The assay offers a non-radioactive based approach to determine binding of a compound to GPCRs. In this specific assay, the level of intracellular cyclic AMP which is modulated by activation or inhibition of the receptor is measured. The recombinant cells harbor luciferase reporter gene under the control of cAMP response element.
The above cells were grown in 96 well clear bottom white plates in Hams F12 medium containing 10% fetal bovine serum (FBS). Prior to the addition of compounds or standard agonist, cells were serum starved overnight. Increasing concentrations of test compounds were added along with EC20 of acetylcholine in OptiMEM medium to the cells. The incubation was continued at 37° C. in CO2 incubator for 4 hours. Medium was removed and cells were washed with phosphate buffered saline. The cells were lysed and luciferase activity was measured in a Luminometer. Luminescence counts in each concentrations of test item were normalized to the acetylcholine induced maximum response and the data was analyzed using Graphpad software. EC50 values of the compounds were defined as the concentration required in stimulating the luciferase activity by 50% in presence of EC20 of acetylcholine.
Background: A reporter such as luciferase makes a cellular process visible.

Series [3] concerns Male Wistar rats. The series is described as follows: Object recognition task model. The series is classed as in vivo. As to conditions: rat, p.o.; for Exploration time mean ± S.E.M, Familiar object / Exploration time mean ± S.E.M, Novel object: choice trial T2, 24 hours after T1. Here is the method: Object Recognition Task Model
The cognition enhancing properties of compounds of this invention were estimated by using this model.
Male Wistar rats (8-10 weeks old) were used as experimental animals. Four animals were housed in each cage. Animals were kept on 20% food deprivation from a day prior to experimentation. Water was provided ad libitum throughout the experiment. Animals were maintained on a 12 hours light/dark cycle in temperature and humidity controlled room. The experiment was carried out in a circular or square arena made up of acrylic. Rats were habituated to individual arenas for up to 1 hour in the absence of any objects on day 1.
One group of 12 rats received vehicle and another set of animals received compound of the formula (I), before the familiar (T1) and choice (T2) trials. During the familiarization phase, (T1), the rats were placed individually in the arena for 3 minutes, in which two identical objects (a1 and a2) were positioned 10 cm from the wall. 24 hours after T1, trial for long-term memory test was performed. The same rats were placed in the same arena as they were placed in T1 trial. During the choice phase (T2) rats were allowed to explore the arena for 3 minutes in presence of a copy of familiar object (a3) and one novel object (b). During the T1 and T2 trial, explorations of each object (defined as sniffing, licking, chewing or having moving vibrissae whilst directing the nose towards the object at a distance of less than 1 cm) were recorded using stopwatch.
T1 is the total time spent exploring the familiar objects (a1+a2).
T2 is the total time spent exploring the familiar object and novel object (a3+b).
The object recognition test was performed as described by Ennaceur, A., Delacour, J., 1988, A new one-trial test for neurobiological studies of memory in rats˜Behavioural data, Behav. Brain Res., 31, 47-59.

Series [4] is described as follows: Rodent brain penetration study. The series is classed as in vivo, Male Wistar rats. As to conditions: male, Wistar, brain and plasma, po; rat, 3 mg/kg, p.o. @ 1.0 hr, brain-plasma ratio; read-out: Single dose Rat Brain Penetration (Cb/Cp). Here is the method:
Rodent Brain Penetration Study
Male Wistar rats (260±40 grams) were used as experimental animals. Three animals were housed in each cage. Animals were given water and food ad libitum throughout the experiment and maintained on a 12 hours light/dark cycle.
Brain penetration was determined in discrete manner in rats. One day prior to dosing day, male Wistar rats were acclimatized and randomly grouped according to their weight. At each time point (0.5, 1 and 2 hours) n=3 animals were used.
The test compounds were suitably preformulated and administered orally at (free base equivalent) 3 mg/kg. Blood samples were removed via cardiac puncture by using isoflurane anesthesia. The animals were sacrificed to collect brain tissue. Plasma was separated and brain samples were homogenized and stored frozen at −20° C. until analysis. The concentrations of the test compounds in plasma and brain were determined using LC-MS/MS method.
The test compounds were quantified in plasma and brain homogenate by qualified LC-MS/MS method using suitable extraction technique. The test compounds were quantified in the calibration range of 1-500 ng/mL in plasma and brain homogenate. Study samples were analyzed using calibration samples in the batch and quality control samples spread across the batch.

In general, AUC(0-t) refers to exposure summed from dosing to a finite time, without extrapolation to infinity. Low values mean low exposure, high ones high exposure. As a reminder, the half-life is how long it takes for the measured level to halve. Lower therefore signals fast loss. The term clearance denotes the volume of plasma or blood freed of the substance per unit of time. Lower therefore signals a low capacity for elimination. The term bioavailability denotes the share of a dose that reaches the circulation, judged against a reference dose that is usually intravenous. A higher bioavailability goes with much systemic uptake. As a reminder, the Cmax is the maximum level reached in the sampled fluid or tissue. A word on the EC50: it is the concentration at which the effect is half-maximal. On to `COc1ccc(Cc2cc(C(=O)N[C@H]3CCCC[C@@H]3O)n3ncccc23)cc1` [Example 20, N-(cis-1S,2S-2-Hydroxycyclohexyl)-5-(4-methoxybenzyl)-pyrrolo[1,2-b]pyridazine-7-carboxamide], for which, in series [1] (iv, i.v. 1 mg/kg), the AUC(0-t) stood at 1380 ± 390 ng·h/mL, the half-life is 2.7 ± 0.8 h and the clearance worked out at 12.2 ± 3.1 mL/min/kg. This compound also displayed a bioavailability in series [1] of 39 ± 3%. In series [1] (oral 3 mg/kg), this compound had an area under the curve AUC(0-t) of 1610 ± 139 ng·h/mL, a Cmax of 402 ± 98 ng/mL and a half-life of 3.4 ± 0.7 h. For the same compound, in series [2], the EC50 came out at 1.34 µM. For the same compound, in series [3] (1 mg/kg), the Inference result is “Active”; the “Exploration time mean ± S.E.M, Familiar object” value was found to be 10.31 ± 1.07 s; the “Exploration time mean ± S.E.M, Novel object” value stood at 14.92 ± 1.11 s. The Kp at 1 h in series [4] stood at 1.52 ± 0.15.

In series [1] (iv, i.v. 1 mg/kg), `Cn1cc(-c2ccc(Cc3cc(C(=O)N[C@H]4CCCC[C@@H]4O)n4ncccc34)c(F)c2)cn1` [Example 34, N-(cis-1S,2S-2-Hydroxycyclohexyl)-5-[2-fluoro-4-(1-methyl-1H-pyrazol-4-yl)-benzyl]-pyrrolo[1,2-b]pyridazine-7-carboxamide] showed an area under the curve AUC(0-t) of 3230 ± 625 ng·h/mL, a half-life of 3.7 ± 0.3 h and a clearance of 5 ± 0.7 mL/min/kg. Also, in series [1], the bioavailability came to 66 ± 3%. For the same compound, in series [1] (oral 3 mg/kg), the area under the curve AUC(0-t) was determined as 6390 ± 312 ng·h/mL, the peak level (Cmax) was 793 ± 86 ng/mL and the half-life is 4.4 ± 2.3 h. Moreover, the concentration giving a half-maximal response (EC50) in series [2] came to 0.989 µM. Further, in series [3] (0.3 mg/kg), the Inference entry was “Active”; the “Exploration time mean ± S.E.M, Familiar object” value was 10.35 ± 1.75 s; the “Exploration time mean ± S.E.M, Novel object” value was determined as 15.63 ± 3.23 s. Also, the Kp at 1 h in series [4] was 0.13 ± 0.02.
